Source: US9345710B2, “Inhibitors of phosphatidic acid phosphohydrolase (PAP) enzymes for the treatment of cancers that depend on members of the ErbB/HER tyrosine kinase receptor family” (PONTIFICA UNIVERSIDAD CATOLICA DE CHILE, priority 2011, dated 2016)
Several values for one entry are separate records, joined by “and”; a condition that tells them apart may be missing. Identical values can stand only once.

Key:
[1] = system: EGFR at the cell surface; conditions: highest dose 300 μM, 30 min; cited from earlier work
[2] = system: EGFR; test: Indirect immunofluorescence of EGFR distribution in HeLa cells; parameters: EGFR endocytosis (immunofluorescent pattern): dose or concentration left out as unconfirmed; conditions: for EGFR endocytosis (immunofluorescent pattern): […] μM propranolol, […] μM desipramine; for EGFR staining pattern by indirect immunofluorescence: 30 min, 100 μM D- or L-propranolol, 20 μM desipramine
Protocol: HeLa cells grown on glass coverslips were washed three times with cold phosphate buffer saline (PBS) and incubated 2 h in serum free DMEM-HEPES media at 37° C., in order to accumulate EGFR on the cell surface. Then the cells were washed with PBS and fixed for 30 min at room temperature with 4% paraformaldehyde in PBS supplemented with 0.1 mM CaCl2 and 1 mM MgCl 2 (PBS-CM). After washing three times with PBS plus 0.2% gelatin (300 Bloom, Sigma Aldrich, PBS-CM-G), 5 minutes each time, cells were permeabilized with 0.2% Triton X-100 for 10 minutes at room temperature and incubated for 12 h at 4° C. with anti-EGFR monoclonal antibody (mAb) HB8506. After at least 6 washes in PBS-CM-G cells were incubated with secondary antibody anti-mouse IgG coupled to Alexa488 (dilution 1/1000) for 30 min at 37° C.

[3] = cited from earlier work
[4] = system: U87 cells; test: Proliferation/viability of cultured tumor cells, U87; assay type: cell-based, human; conditions: 10 μM D-Prop, 1 μM Des, alone or combined, 4 days
Protocol: (§1) HeLa cells used for the radioligand binding assays and immunofluorescence to study EGFR endocytosis have been characterized previously in our laboratory (64, 122, 152). The cells were grown to approximately 80% confluence and maintained without serum for 4 h before testing. U87 human […] cells from the ATCC were grown and transfected with pcDNA3.1-EGFRvIII-myc using the lipofectamine method following the manufacturer's instructions (Invitrogen). 100,000 U87 cells were seeded in 15 mm plated and after 48 hours of seeding cells were transfected with 1 μg of plasmid pcDNA3-EGFRvIII-myc. After 48 hours post-transfection the selection medium (DMEM, 10% Fetal Bovine Serum (FBS) supplemented with antibiotics (100 IU/ml penicillin, […] streptomycin) and 0.8 mg/ml Geneticin was added (G418, Sigma). After 2 weeks in selection media, permanently transfected cells were obtained (U87-EGFRvIII).
(§2) Cells were seeded at a density of 10.000 cells per well in 24-well plates in triplicate and cultured in DMEM supplemented with 10% FBS and antibiotics (penicillin 100 U/ml and streptomycin 100 mg/ml). The medium with the drugs was changed each 24 hours. […] Viable cells were counted after 4 days of treatment in an automatic cell counter (Countess, Invitrogen) after incubation with vital tripan blue dye and are represented as % of live cells respect to untreated controls.

[5] = system: GBM1 cells; test: Proliferation/viability of primary glioblastoma cells GBM1; assay type: cell-based, human; conditions: 10 μM D-Prop, 1 μM Des, alone or combined, 4 days
Protocol: (§3) Cells were seeded at a density of 10.000 cells per well in 24-well plates in triplicate and cultured in DMEM supplemented with 10% FBS and antibiotics (penicillin 100 U/ml and streptomycin 100 mg/ml). The medium with the drugs was changed each 24 hours. The respective controls received only culture medium. Viable cells were counted after 4 days of treatment in an automatic cell counter (Countess, Invitrogen) after incubation with vital tripan blue dye and are represented as % of live cells respect to untreated controls.

[6] = system: UCI 101 cells; test: Proliferation/viability, ovarian cancer cells UCI 101; assay type: cell-based, human; conditions: 10 or 30 μM D-Prop, 1 μM Des, alone or combined, 4 days
Protocol: (§4) Viable cells counted in an automatic cell counter after incubation with vital tripan blue dye are represented as % of live cells respect to untreated controls.
as §3

[7] = system: B16F10 cells; test: Proliferation/viability, melanoma cells B16F10; assay type: cell-based, mice; conditions: 10 or 30 μM D-Prop, 1 μM Des, alone or combined, 4 days
Protocol: as §4, §3

[8] = system: U87-EGFRvIII cells; test: Proliferation/viability of cultured tumor cells, U87-EGFRvIII; assay type: cell-based, human; conditions: 10 μM D-Prop, 1 μM Des, alone or combined, 4 days
Protocol: as §1, §2

[9] = system: EGFR at the cell surface; test: 125I-EGF radioligand binding assay on HeLa cells (EGFR at the cell surface); assay type: cell-based, human; conditions: for decrease of EGFR at the cell surface (125I-EGF binding): 30 min, HeLa
Protocol: as §1
The radioligand ^125I-human EGF was prepared by the chloramine T method as described (122, 152, 160) yielding specific activities of 50000-70000 cpm/ng. Binding assays were performed in Hanks solution with 20 mM HEPES and 0.2% bovine serum albumin (BSA) for 1 h at 4° C., as described (122). HeLa cells deprived of serum for 4 h were treated for 30 min with the indicated doses of various drugs and then incubated with 20 ng/ml ^125I-EGF at 4° C. in binding medium (MEM-Hank's, 25 mM HEPES, 0.2% BSA RIA grade), stirring for 1 h. The cells were lysed with 1 N NaOH for 2 h at room temperature and the counts per minute of each sample in triplicate was determined in a gamma counter, including a nonspecific binding point obtained by incubation with an excess (500 fold) of cold ligand, whose value was subtracted from each sample. The radioligand binding in saturating condition provides an estimate of the amount of EGFR on the cell surface.

[10] = system: MDCK cells; test: Proliferation/viability, non-tumoral MDCK cells (selectivity control); assay type: cell-based, canine; conditions: 10 or 30 μM D-Prop, 1 μM Des, alone or combined, 4 days
Protocol: as §4, §3

[11] = system: H1975 cells; test: Proliferation/viability, NSCLC cells H1975 (EGFR L858R/T790M); assay type: cell-based, human; conditions: 10 or 30 μM D-Prop, 1 μM Des, alone or combined, 4 days
Protocol: as §4, §3

| SMILES | decrease of the levels of EGFR at the cell surface (125I-EGF binding) [1] | EGFR endocytosis (immunofluorescent pattern) [2] | half-time of concentration in circulation ([3]; human, in vivo) | proliferation of U87 cells [4] | proliferation of GBM1 cells [5] | viable cells (% of live cells respect to untreated controls), UCI 101 [6] | viable cells (% of live cells respect to untreated controls), B16F10 [7] | proliferation of U87-EGFRvIII cells [8] | EC50 ([9]; HeLa cells, serum deprived 4 h, drug 30 min, read-out: EC50 for decrease in 125I-EGF binding (EGFR at the cell surface)) | viable cells (% of live cells respect to untreated controls), MDCK [10] | EGFR staining pattern by indirect immunofluorescence [2] | viable cells (% of live cells respect to untreated controls), H1975 [11] | reported effective blood concentration ([3]; human, in vivo) | decrease of EGFR at the cell surface (125I-EGF binding) ([9]; 250 μM) | decrease of EGFR at the cell surface (125I-EGF binding) ([9]; […] μM) | concentration in the blood of patients ([3]; patients treated for arrhythmia, 12 h after the last dose (ref. 14)) |
| --- | --- | --- | --- | --- | --- | --- | --- | --- | --- | --- | --- | --- | --- | --- | --- | --- |
| CC(C)NCC(O)COc1cccc2ccccc12 (racemic) [propranolol] | 80% | induce endocytosis of the EGFR | 4 to 6 h |  |  |  |  |  |  |  |  |  |  |  |  |  |
| CNCCCN1c2ccccc2CCc2ccccc21 [desipramine] |  | induce endocytosis of the EGFR |  | not sensitive | decrease their proliferation | sensitive | sensitive | decrease their proliferation | 20 to 25 µM and ~20 µM | not affected | the pattern changed to an intracellular location, mainly at the perinuclear region | sensitive | 1 µM |  |  |  |
| CC(C)NC[C@@H](O)COc1cccc2ccccc12 [D-propranolol] |  |  |  | not sensitive | decrease their proliferation | sensitive | sensitive | decrease their proliferation |  | not affected | the pattern changed to an intracellular location, mainly at the perinuclear region | sensitive |  | ~80% | about 50% | ~10 µM |
| CC(C)NC[C@H](O)COc1cccc2ccccc12 [L-propranolol] |  |  |  |  |  |  |  |  |  |  | the pattern changed to an intracellular location, mainly at the perinuclear region |  |  | ~80% | about 50% |  |
